Measured values: US5270302A, “Derivatives of tetrapeptides as CCK agonists” (priority 1991, dated 1993)
Like-named read-outs stand apart in the source and are kept apart here. *1 amine or outer side, *2 acyl side, *3 side chain or, on linkers, in order; H or OH if unused. Where a SMILES comes first, the peptide text is derived from it. Side-chain parts run from the residue outwards. [ ]: non-standard residue; d: D form. The star is where a group is joined. ξ: configuration not given here. NMeW = CN[C@@H](Cc1c[nH]c2ccccc12)C(=O)O; ξαMeW = CC(N)(Cc1c[nH]c2ccccc12)C(=O)O; Butanoyl(3,3-Me2) = CC(C)(C)CC(=O)*; NMeF = CN[C@@H](Cc1ccccc1)C(=O)O; NMeD = CN[C@@H](CC(=O)O)C(=O)O; NH(2-Me-phenyl) = Cc1ccccc1N*; X5 = O=C(CCc1ccc(O)c(I)c1)*; X17 = O=C(C=Cc1ccccc1O)*; Boc = CC(C)(C)OC(=O)*; CO = O=C([*:1])[*:2]; X6 = O=C(Oc1ccccc1)*; NHPh = c1ccc(N*)cc1; X2 = C1CN(CCO*)CCO1; Ms = CS(=O)(=O)*

What was measured:
[1] = molecular target: T1, Type-B CCK receptor (Cavia porcellus, UniProt H0VZC5); assay: Radioligand binding of [125I]BH-CCK-8 in guinea pig cerebral cortical membrane preparations
T1 construct: Cortical and pancreatic membranes were prepared as described; from tissue; host or cells: guinea pig cerebral cortex membranes
T1 sequence (H0VZC5 1-426): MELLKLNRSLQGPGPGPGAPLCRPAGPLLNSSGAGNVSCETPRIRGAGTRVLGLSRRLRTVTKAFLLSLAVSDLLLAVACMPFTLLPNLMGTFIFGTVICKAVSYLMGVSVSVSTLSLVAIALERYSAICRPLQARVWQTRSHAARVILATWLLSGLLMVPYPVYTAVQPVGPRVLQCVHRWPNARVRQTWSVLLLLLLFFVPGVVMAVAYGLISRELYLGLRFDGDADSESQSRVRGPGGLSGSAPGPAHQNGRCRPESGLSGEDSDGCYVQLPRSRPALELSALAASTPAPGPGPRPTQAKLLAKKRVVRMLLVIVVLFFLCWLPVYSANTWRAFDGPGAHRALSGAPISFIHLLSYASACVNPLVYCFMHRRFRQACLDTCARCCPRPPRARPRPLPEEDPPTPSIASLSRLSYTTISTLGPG
Description: (§1) CCK-8 [Asp-Tyr(SO3 H)-Met-Gly-Trp-Met-Asp-PheNH2 ], bestatin and phosphoramidion were purchased from Peptide International (Louisville, Ky.). EGTA (ethylene glycol-bis-(β-aminoethyl) N,N,N',N'-tetraacetic acid), HEPES (4-(2-hydroxyethyl)-1-piperazine-enthanesulfonic acid) and BSA (bovine serum albumin) were purchased from Sigma Chemical Co. (St. Louis, Mo.). [^125 I]-Bolton-Hunteer (BH-CCK-8) (specific activity, 2200 Ci/mmol) was obtained from New England Nuclear (Boston, Mass.). Male guinea pigs, 250 to 325 g, were obtained from Scientific Small Animal Laboratory and Farm (Arlington Heights, Ill.). Collagenase, code CLSPA was purchased from Worthington (Frehold, N.J.).
(§2) Protocol For Radioligand Binding Experiments in Guinea Pig Cerebral Cortical and Pancreatic Membrane Preparations
(§3) Cortical and pancreatic membranes were prepared as described (Lin and Miller; J. Pharmacol. Exp. Ther. 1985, 232:775-780,). In brief, cortex and pancreas were removed and rinsed with ice-cold saline. Visible fat and connective tissues were removed from the pancreas. […] The homogenates were entrifuged for 10 minutes at 1075×g and pellets were discarded. The supernatants were saved and centrifuged at 38,730×g for 20 minutes. The resultant pellets were rehomogenized in 25 mL of 50 mM Tris-HCl buffer with a Teflon-glass homogenizer, 5 up and down strokes. The homogenates were centrifuged again at 38,730×g for 20 minutes. Pellets werre then resuspended in 20 mM HEPES, containing 1 mM EGTA, 118 mM NaCl, 4.7 mM KCl, 5 mM MgCl2, 100 μM bestatin, 3 μM phosphoramidon, pH 7.4 at 22° C. with a Teflon-glass homogenizer, 15 up and down strokes. Resuspension volume for the cortex was 15-18 mL per gram of original wet weight and 60 mL per gram for the pancreas.
(§4) [^125 I]Bolton-Hunter CCK-8 and test compounds were diluted with HEPES-EGTA-salt buffer (see above) containing 0.5% BSA. To 1 mL Skatron polystyrene tubes were added 25 μL of test compounds, 25 μL of [^125 I]BH-CCK-8 and 200 μL of membrane suspension. The final BSA concentration was 0.1%. The cortical tissues were incubated at 30° C. for 150 minutes and pancreatic tissues were incubated at 37° C. for 150 min. Incubations were terminated by filtration using Skatron Cell Harvester and SS32 microfiber filter mats. […] IC50 s were determined from the Hill analysis.

[2] = molecular target: T2, Type-A CCK receptor (Cavia porcellus, UniProt Q63931); assay: Radioligand binding of [125I]BH-CCK-8 in guinea pig pancreatic membrane preparations
T2 construct: Cortical and pancreatic membranes were prepared as described; from tissue; host or cells: guinea pig pancreas membranes
T2 sequence (Q63931 1-430): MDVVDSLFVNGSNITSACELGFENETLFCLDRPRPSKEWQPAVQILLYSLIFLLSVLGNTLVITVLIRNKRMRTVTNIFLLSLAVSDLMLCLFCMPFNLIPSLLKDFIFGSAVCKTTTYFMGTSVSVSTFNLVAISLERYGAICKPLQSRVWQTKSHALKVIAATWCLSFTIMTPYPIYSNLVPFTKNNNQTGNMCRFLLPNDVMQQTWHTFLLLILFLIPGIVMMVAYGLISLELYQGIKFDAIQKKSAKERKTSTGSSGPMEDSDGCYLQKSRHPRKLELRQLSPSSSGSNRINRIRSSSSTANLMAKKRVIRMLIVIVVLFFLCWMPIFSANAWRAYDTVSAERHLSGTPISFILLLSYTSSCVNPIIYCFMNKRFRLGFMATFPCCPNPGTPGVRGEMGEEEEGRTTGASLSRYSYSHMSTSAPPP
Description: as §1, §2, §3, §4

[3] = IC50 (nM) 125I-BH-CCK-8 Type-B receptor, guinea pig cortical membranes, 30° C., 150 minutes
[4] = IC50 (nM) 125I-BH-CCK-8 Type-A receptor, guinea pig pancreatic membranes, 37° C., 150 min
[5] = guinea pig cortical membranes, 30° C., 150 minutes, read-out: IC50 (nM) 125I-BH-CCK-8 Type-B receptor
[6] = guinea pig pancreatic membranes, 37° C., 150 min, read-out: IC50 (nM) 125I-BH-CCK-8 Type-A receptor

Compound | IC50 [1, 3] [nM] | IC50 [2, 4] [nM] | IC50 [1, 5] [nM] | IC50 [2, 6] [nM] | other results
Cc1ccccc1NC(=O)NCCCC[C@H](NC(=O)[C@H](Cc1c[nH]c2ccccc12)NC(=O)Nc1ccccc1)C(=O)N[C@@H](CC(=O)O)C(=O)N(C)[C@@H](Cc1ccccc1)C(N)=O [Example 84, Phenylaminocarbonyl-Trp-Lys(ε-N-(2-methylphenyl)aminocarbonyl)-Asp-(NMe)PheNH2] ({NHPh-CO}-WK([CO-NH(2-Me-phenyl)])D[NMeF]-NH2) | 3000 | 3 | – | – | –
CC(=O)N[C@@H](Cc1c[nH]c2ccccc12)C(=O)N[C@@H](CCCCNC(=O)Nc1ccccc1C)C(=O)N[C@@H](CC(=O)O)C(=O)N(C)[C@@H](Cc1ccccc1)C(N)=O [Example 85, Acetyl-Trp-Lys(ε-N-(2-methylphenyl)aminocarbonyl)-Asp-(NMe)PheNH2] (Ac-WK([CO-NH(2-Me-phenyl)])D[NMeF]-NH2) | 10000 | 5.8 | – | – | –
Cc1ccccc1NC(=O)NCCCC[C@H](NC(=O)C(F)Cc1c[nH]c2ccccc12)C(=O)N[C@@H](CC(=O)O)C(=O)N[C@@H](Cc1ccccc1)C(N)=O (some centres unmarked) [Example 63, 2-Fluoro-3-(indol-3-yl)propionyl-Lys(ε-N-(2-methylphenyl)aminocarbonyl)-Asp-PheNH2] | – | – | 4500 | 20 | –
Cc1ccccc1NC(=O)NCCCC[C@H](NC(=O)[C@H](Cc1c[nH]c2ccccc12)NC(=O)CC(C)(C)C)C(=O)N[C@@H](CC(=O)O)C(=O)N(C)[C@@H](Cc1ccccc1)C(N)=O [Example 87, t-Butylacetyl-Trp-Lys(ε-N-(2-methylphenyl)aminocarbonyl)-Asp-(NMe)PheNH2] ({Butanoyl(3,3-Me2)}-WK([CO-NH(2-Me-phenyl)])D[NMeF]-NH2) | 8400 | 4.5 | – | – | –
Cc1ccccc1NC(=O)NCCCC[C@H](NC(=O)C(C)(Cc1c[nH]c2ccccc12)NC(=O)OC(C)(C)C)C(=O)N[C@@H](CC(=O)O)C(=O)N[C@@H](Cc1ccccc1)C(N)=O (stereo partly drawn) [Example 96, t-BOC-D,L-(α-methyl)Trp-Lys(ε-N-(2-methylphenyl)aminocarbonyl)-Asp-PheNH2] (Boc-[ξαMeW]K([CO-NH(2-Me-phenyl)])DF-NH2) | 9300 | 16 | – | – | –
Cc1ccccc1NC(=O)NCCCC[C@H](NC(=O)[C@H](Cc1c[nH]c2ccccc12)NC(=O)OC(C)(C)C)C(=O)N[C@@H](CC(=O)O)C(=O)N1CCC[C@]1(Cc1ccccc1)C(N)=O [Example 115, t-BOC-Trp-Lys(ε-N-(2-methylphenyl)aminocarbonyl)-Asp-(S)-α-benzylprolinamide] | > 10000 | 18 | – | – | –
CC(C)(C)OC(=O)N[C@@H](Cc1c[nH]c2ccccc12)C(=O)N[C@@H](CCCCNC(=O)C=Cc1ccccc1O)C(=O)N[C@@H](CC(=O)O)C(=O)N[C@@H](Cc1ccccc1)C(N)=O [Example 22, t-BOC-Trp-Lys(ε-N-(2-hydroxycinnamoyl))-Asp-PheNH2] (Boc-WK(X17)DF-NH2) | – | – | 200 | 81 | –
CC(=O)N[C@@H](Cc1c[nH]c2ccccc12)C(=O)N[C@@H](CCCCNC(=O)Nc1ccccc1C)C(=O)N(C)[C@@H](CC(=O)O)C(=O)N[C@@H](Cc1ccccc1)C(N)=O [Example 86, Acetyl-Trp-Lys(ε-N-(2-methylphenyl)aminocarbonyl)-(NMe)Asp-PheNH2] (Ac-WK([CO-NH(2-Me-phenyl)])[NMeD]F-NH2) | > 10000 | 6.7 | – | – | –
Cc1ccccc1NC(=O)NCCCC[C@H](NC(=O)C(C)Cc1c[nH]c2ccccc12)C(=O)N[C@@H](CC(=O)O)C(=O)N(C)[C@@H](Cc1ccccc1)C(N)=O (some centres unmarked) [Example 104, (2-Methyl-3-(3-indolyl)propionyl)-Lys(ε-N-(2-methylphenyl)aminocarbonyl)-Asp-(NMe)PheNH2] | – | – | 4100 | 200 | –
Cc1ccccc1NC(=O)NCCCC[C@H](NC(=O)[C@H](Cc1c[nH]c2ccccc12)NS(C)(=O)=O)C(=O)N[C@@H](CC(=O)O)C(=O)N(C)[C@@H](Cc1ccccc1)C(N)=O [Example 95, Methylsufonamyl-Trp-Lys(ε-N-(2-methylphenyl)aminocarbonyl)-Asp-(NMe)PheNH2] (Ms-WK([CO-NH(2-Me-phenyl)])D[NMeF]-NH2) | – | – | > 10000 | 47 | –
Cc1ccccc1NC(=O)NCCCC[C@H](NC(=O)[C@H](Cc1c[nH]c2ccccc12)NC(=O)OC(C)(C)C)C(=O)N[C@@H](CC(=O)OCCN1CCOCC1)C(=O)N(C)[C@@H](Cc1ccccc1)C(N)=O [Example 120, t-BOC-Trp-Lys(ε-N-(2-methylphenyl)aminocarbonyl)-Asp(β-2-(1-morpholino)ethyl)-(NMe)PheNH2] (Boc-WK([CO-NH(2-Me-phenyl)])D(X2)[NMeF]-NH2) | – | – | – | – | IC50 [1]: 13000 nM; IC50 [2]: 26 nM
CNC(=O)N[C@@H](Cc1c[nH]c2ccccc12)C(=O)N[C@@H](CCCCNC(=O)Nc1ccccc1C)C(=O)N[C@@H](CC(=O)O)C(=O)N(C)[C@@H](Cc1ccccc1)C(N)=O [Example 83, Methylaminocarbonyl-Trp-Lys(ε-N-(2-methylphenyl)aminocarbonyl)-Asp-(NMe)PheNH2] ({NHMe-CO}-WK([CO-NH(2-Me-phenyl)])D[NMeF]-NH2) | 4900 | 9.7 | – | – | –
CN[C@@H](Cc1c[nH]c2ccccc12)C(=O)N[C@@H](CCCCNC(=O)Nc1ccccc1C)C(=O)N[C@@H](CC(=O)O)C(=O)N(C)[C@@H](Cc1ccccc1)C(N)=O [Example 101, (NMe)Trp-Lys(ε-N-(2-methylphenyl)aminocarbonyl)-Asp-(NMe)PheNH2] (H-[NMeW]K([CO-NH(2-Me-phenyl)])D[NMeF]-NH2) | 12000 | 9.3 | – | – | –
Cc1ccccc1NC(=O)NCCCC[C@H](NC(=O)[C@H](Cc1c[nH]c2ccccc12)NC(=O)CCc1ccc(O)c(I)c1)C(=O)N[C@@H](CC(=O)O)C(=O)N(C)[C@@H](Cc1ccccc1)C(N)=O [Example 93, (3-(4-Hydroxy-3-iodophenyl)propionyl)-Trp-Lys(ε-N-(2-methylphenyl)aminocarbonyl)-Asp-(NMe)PheNH2] (X5-WK([CO-NH(2-Me-phenyl)])D[NMeF]-NH2) | – | – | – | – | IC50 [1]: 4200 nM; IC50 [2]: 4.6 nM
Cc1ccccc1NC(=O)NCCCC[C@H](NC(=O)[C@H](Cc1c[nH]c2ccccc12)NC(=O)Oc1ccccc1)C(=O)N[C@@H](CC(=O)O)C(=O)N(C)[C@@H](Cc1ccccc1)C(N)=O [Example 79, Phenoxycarbonyl-Trp-Lys(ε-N-(2-methylphenyl)aminocarbonyl)-Asp-(NMe)PheNH2] (X6-WK([CO-NH(2-Me-phenyl)])D[NMeF]-NH2) | – | – | – | – | IC50 [1]: 7200 nM; IC50 [2]: 10 nM
Cc1ccccc1NC(=O)NCCCC[C@H](NC(=O)C(F)Cc1c[nH]c2ccccc12)C(=O)N[C@@H](CC(=O)O)C(=O)N(C)[C@@H](Cc1ccccc1)C(N)=O (some centres unmarked) [Example 108, (2-Fluoro-3-(3-indolyl)propionyl)-Lys(ε-N-(2-methylphenyl)aminocarbonyl)-Asp-(NMe)PheNH2] | – | – | 10000 | 14 | –
